Results on one compound are retold here after BindingDB's records for doi:10.1021/jm900135r (Washington University, 2009).

Structures are written as SMILES. Where a SMILES comes first, the peptide text is derived from it. [ ]: non-standard residue; d: D form. ξ: configuration not given here. Ile(3ξ) = CCC(C)[C@H](N)C(=O)O; Thr(3ξ) = CC(O)[C@H](N)C(=O)O

This experiment concerns the target Caspase-8 (Homo sapiens, UniProt Q14790). The experiment is described as follows: Enzyme Inhibition Assay. As to the method:
The caspase enzymatic activity was determined by measuring the accumulation of a fluorogenic product. All assays were prepared in 96-well format. Recombinant caspase enzyme was first assayed to determine the optimal concentration for each experiment. Peptide inhibitors with known IC50 values were tested together with the compounds as a control for each caspase assay. […] Compounds were tested in duplicate and IC50 curves were calculated for all inhibitors assayed.

Sequence of Caspase-8 (Q14790 217-374 limits assumed): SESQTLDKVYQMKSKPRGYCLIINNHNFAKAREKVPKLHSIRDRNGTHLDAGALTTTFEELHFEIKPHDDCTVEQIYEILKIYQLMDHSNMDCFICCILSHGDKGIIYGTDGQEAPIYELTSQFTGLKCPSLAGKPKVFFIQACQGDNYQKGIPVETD
Sequence of Caspase-8 (Q14790 385-479 limits assumed): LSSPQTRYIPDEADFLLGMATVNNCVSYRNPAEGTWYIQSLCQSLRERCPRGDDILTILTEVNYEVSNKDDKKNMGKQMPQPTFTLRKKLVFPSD

By IC50 is commonly meant the concentration at which inhibition is half-maximal. A high value points to weaker potency in that assay. The compound `CCC(C)[C@H](NC(C)=O)C(=O)N[C@@H](CCC(=O)O)C(=O)N[C@H](C(=O)N[C@H](C=O)CC(=O)O)C(C)O` (stereo partly drawn) [(4S)-4-{[(1S)-1-{[(2S)-1-carboxy-3-oxopropan-2-yl]carbamoyl}-2-hydroxypropyl]carbamoyl}-4-[(2S)-2-acetamido-3-methylpentanamido]butanoic acid] (Ac-[Ile(3ξ)]E[Thr(3ξ)]D-aldehyde) displayed an IC50 of 4.2 nM.
